{"source": "patent US8394954B2", "about": "“Benzophenone hybrids as anticancer agents and processes for the preparation thereof” (Council of Scientific & Industrial Research, priority 2007, dated 2013)", "key": {"[1]": {"tested_on": "Leukemia cancer cell lines", "assay": "NCI in vitro anticancer screen, leukemia panel", "assay_type": "cell-based, human", "settings": "Homo sapiens, average of six to nine cell lines, read-out: Log GI50 (concentration in mol/L causing 50% growth inhibition) (converted)", "experimental": "(§1) Compounds described herein were evaluated for in vitro anticancer activity. Particularly the 6a, 6b, 6d, 6h, 8a and 8b compounds were evaluated for in vitro anticancer activity against sixty human tumor cells derived from nine cancer types (leukemia, non-small-cell lung, colon, […], ovarian, prostate, and breast cancer) as shown in (Table 2 and 3). For the compound, dose response curves for each cell line were measured at a minimum of five concentrations at 10 fold dilutions. A protocol of 48 h continuous drug exposure was used and a sulforhodamine B (SRB) protein assay was used to estimate cell viability or growth. The concentration causing 50% cell growth inhibition (GI50), total cell growth inhibition (TGI 0% growth) and 50% cell death (LC50, −50% growth) compared with the control was calculated."}, "CNS cancer cell lines": {"tested_on": "CNS cancer cell lines", "assay": "NCI in vitro anticancer screen, CNS panel", "assay_type": "cell-based, human", "settings": "Homo sapiens, average of six to nine cell lines, read-out: Log GI50 (concentration in mol/L causing 50% growth inhibition) (converted)", "experimental": "as §1"}, "Renal cancer cell lines": {"tested_on": "Renal cancer cell lines", "assay": "NCI in vitro anticancer screen, renal panel", "assay_type": "cell-based, human", "settings": "Homo sapiens, average of six to nine cell lines, read-out: Log GI50 (concentration in mol/L causing 50% growth inhibition) (converted)", "experimental": "as §1"}, "[2]": {"tested_on": "Ovarian cancer cell lines", "assay": "NCI in vitro anticancer screen, ovarian panel", "assay_type": "cell-based, human", "settings": "Homo sapiens, average of six to nine cell lines, read-out: Log GI50 (concentration in mol/L causing 50% growth inhibition) (converted)", "experimental": "as §1"}, "[3]": {"tested_on": "ovarian cancer OVCAR-4 cell line", "assay": "NCI in vitro anticancer screen, OVCAR-4", "assay_type": "cell-based", "settings": "Homo sapiens", "experimental": "as §1\n(§2) In the non-small cell lung cancer panel, the growth of HOP-62, […] were affected by compound 6d with G150 values as 11.7, 13.9 and 17.2 nM respectively. […] In vitro cytotoxicity of compounds 6d, 8a, and 8b in selected cancer cell lines has been illustrated in Table 3. The average G150 values for each cancer panel of compounds 6a, 6b, 6d, 6e, 8a and 8b have been illustrated in Table 2."}, "[4]": {"tested_on": "renal and breast cancer panels", "assay": "NCI in vitro anticancer screen, renal and breast panels", "assay_type": "cell-based", "settings": "Homo sapiens; range over renal and breast cancer panels", "experimental": "as §1, §2"}, "[5]": {"tested_on": "Melanoma cancer cell lines", "assay": "NCI in vitro anticancer screen, melanoma panel", "assay_type": "cell-based, human", "settings": "Homo sapiens, average of six to nine cell lines, read-out: Log GI50 (concentration in mol/L causing 50% growth inhibition) (converted)", "experimental": "as §1"}, "[6]": {"tested_on": "ovarian cancer OVCAR-8 cell line", "assay": "NCI in vitro anticancer screen, OVCAR-8", "assay_type": "cell-based", "settings": "Homo sapiens", "experimental": "as §1, §2"}, "[7]": {"tested_on": "ovarian cancer SK-OV-3 cell line", "assay": "NCI in vitro anticancer screen, SK-OV-3", "assay_type": "cell-based", "settings": "Homo sapiens", "experimental": "as §1, §2"}, "[8]": {"tested_on": "HOP-62, NCI-H23 cell lines", "assay": "NCI in vitro anticancer screen, non-small cell lung lines", "assay_type": "cell-based", "settings": "Homo sapiens, non-small cell lung cancer panel", "experimental": "as §1, §2"}, "[9]": {"tested_on": "human cancer cell lines of colon (Colo205), lung (Hop-62), cervix (SiHa), prostate (DU145, PC3), oral (DWD, HT1080), and breast (MCF7, Zr-75-1) origin", "assay": "In vitro evaluation of cytotoxic activity in selected human cancer cell lines, 48 h exposure", "assay_type": "cell-based", "settings": "48 h continuous drug exposure", "experimental": "In vitro evaluation of cytotoxic activity. Compounds 6a, 6b, 6d, 6e, 8a and 8b were evaluated for in vitro anticancer activity against nine human tumor cells derived from six cancer types (colon, prostate, oral, lung, cervix and breast cancer) as shown in Table 2. […] Compounds 6a, 6b, 6d, 6e, 8a and 8b have been evaluated for their in vitro cytotoxicity in selected human cancer cell lines of colon (Colo205), lung (Hop-62), cervix (SiHa), prostate (DU145, PC3), oral (DWD, HT1080), and breast (MCF7, Zr-75-1) origin. A protocol of 48 h continuous drug exposure has been used and an […] has been used to estimate cell viability or growth. The results are expressed as percent of cell growth determined relative to that of untreated control cells"}, "[10]": {"tested_on": "ovarian cancer OVCAR-5 cell line", "assay": "NCI in vitro anticancer screen, OVCAR-5", "assay_type": "cell-based", "settings": "Homo sapiens", "experimental": "as §1, §2"}, "[11]": {"tested_on": "Nonsmall-cell-lung cancer cell lines", "assay": "NCI in vitro anticancer screen, non-small-cell lung panel", "assay_type": "cell-based, human", "settings": "Homo sapiens, average of six to nine cell lines, read-out: Log GI50 (concentration in mol/L causing 50% growth inhibition) (converted)", "experimental": "as §1"}, "[12]": {"tested_on": "Prostate cancer cell lines", "assay": "NCI in vitro anticancer screen, prostate panel", "assay_type": "cell-based, human", "settings": "Homo sapiens, average of six to nine cell lines, read-out: Log GI50 (concentration in mol/L causing 50% growth inhibition) (converted)", "experimental": "as §1"}, "[13]": {"tested_on": "CNS SF-295, SF-539, SNB-19 and SNB-75 cell lines", "assay": "NCI in vitro anticancer screen, CNS lines", "assay_type": "cell-based", "settings": "Homo sapiens; range over SF-295, SF-539, SNB-19 and SNB-75", "experimental": "as §1, §2"}, "[14]": {"tested_on": "duplex-form calf thymus DNA (CT-DNA)", "assay": "Thermal denaturation studies with CT-DNA", "assay_type": "binding", "settings": "[BPD]:[DNA] molar ratio 1:5, CT-DNA 100 μM, ligand 20 μM, pH 7.00", "experimental": "Compounds were subjected to thermal denaturation studies with duplex-form calf thymus DNA (CT-DNA). Working solutions in aqueous buffer (10 mM NaH2PO4/Na2HPO4, 1 mM Na2EDTA, pH 7.00+0.01) containing CT-DNA (100 μm in phosphate) and the BPD (20 μm) were prepared by addition of concentrated BPD solutions in DMSO to obtain a fixed [BPD]/[DNA] molar ratio of 1:5. The DNA-BPD solutions were incubated at 37° C. for 0, 18, and 36 h prior to analysis. Samples were monitored at 260 nm using a Beckman DU-7400 spectrophotometer fitted with high performance temperature controller, and heating was applied at 1° C. min-1 in the 40-90° C. range. DNA helix coil transition temperatures (Tm) were obtained from the maxima in the (dA260)/dT derivative plots. Results are given as the mean±standard deviation from three determinations and are corrected for the effects of DMSO co-solvent using a linear correction term. Drug-induced alterations in DNA melting behavior are given by: ΔTm=Tm(DNA+BPD)−Tm(DNA alone), where the Tm value for the BPD-free CT-DNA is 69.0±0.01."}, "[15]": {"tested_on": "colon cancer HCT-116 cell line", "assay": "NCI in vitro anticancer screen, HCT-116", "assay_type": "cell-based", "settings": "Homo sapiens", "experimental": "as §1, §2"}, "[16]": {"tested_on": "colon cancer HCC-2988 cell line", "assay": "NCI in vitro anticancer screen, HCC-2988", "assay_type": "cell-based", "settings": "Homo sapiens", "experimental": "as §1, §2"}, "[17]": {"tested_on": "colon cancer KM12 cell line", "assay": "NCI in vitro anticancer screen, KM12", "assay_type": "cell-based", "settings": "Homo sapiens", "experimental": "as §1, §2"}, "[18]": {"tested_on": "sixty human tumor cells derived from nine cancer types", "assay": "NCI in vitro anticancer screen, 48 h exposure, SRB assay, mean over all lines", "assay_type": "cell-based", "experimental": "as §1"}, "Colon cancer cell lines": {"tested_on": "Colon cancer cell lines", "assay": "NCI in vitro anticancer screen, colon panel", "assay_type": "cell-based, human", "settings": "Homo sapiens, average of six to nine cell lines, read-out: Log GI50 (concentration in mol/L causing 50% growth inhibition) (converted)", "experimental": "as §1"}, "Breast cancer cell lines": {"tested_on": "Breast cancer cell lines", "assay": "NCI in vitro anticancer screen, breast panel", "assay_type": "cell-based, human", "settings": "Homo sapiens, average of six to nine cell lines, read-out: Log GI50 (concentration in mol/L causing 50% growth inhibition) (converted)", "experimental": "as §1"}}, "data": [{"smiles": "O=C(CN1CCN(c2ncnc3ccccc23)CC1)Nc1ccc(Cl)cc1C(=O)c1ccccc1Cl", "note": "[Compound 6d, N1-4-chloro-2-(2-chlorobenzoyl)phenylJ-2-[4-(4-quinazolinyl)piperazino]acetamide]", "values": [{"measurement": "GI50", "setting": "[1]", "result": 151, "unit": "nM"}, {"measurement": "GI50", "setting": "CNS cancer cell lines", "result": 224, "unit": "nM"}, {"measurement": "GI50", "setting": "Renal cancer cell lines", "result": 214, "unit": "nM"}, {"measurement": "GI50", "setting": "[2]", "result": 219, "unit": "nM"}, {"measurement": "GI50", "setting": "[3]", "result": 30.6, "unit": "nM"}, {"measurement": "GI50", "setting": "[4]", "result": "11.6 to 43.4", "unit": "nM"}, {"measurement": "GI50", "setting": "[5]", "result": 204, "unit": "nM"}, {"measurement": "GI50", "setting": "[6]", "result": 30.5, "unit": "nM"}, {"measurement": "GI50", "setting": "[7]", "result": 78.6, "unit": "nM"}, {"measurement": "GI50", "setting": "[8]", "result": 11.7, "unit": "nM"}, {"measurement": "cytotoxicity against some cancer cell lines", "setting": "[9]", "result": "promising cytotoxicity"}, {"measurement": "GI50", "setting": "[10]", "result": 14.9, "unit": "nM"}, {"measurement": "GI50", "setting": "[11]", "result": 389, "unit": "nM"}, {"measurement": "GI50", "setting": "[12]", "result": 398, "unit": "nM"}, {"measurement": "GI50", "setting": "[13]", "result": "11.6 to 24.2", "unit": "nM"}, {"measurement": "ΔTm after incubation at 37° C. for 0 h", "setting": "[14]; 0 h", "result": 1.5, "unit": "°C"}, {"measurement": "ΔTm after incubation at 37° C. for 18 h", "setting": "[14]; 18 h", "result": 1.9, "unit": "°C"}, {"measurement": "ΔTm after incubation at 37° C. for 36 h", "setting": "[14]; 36 h", "result": 2.7, "unit": "°C"}, {"measurement": "GI50", "setting": "[15]", "result": 11.2, "unit": "nM"}, {"measurement": "GI50", "setting": "[16]", "result": 11.6, "unit": "nM"}, {"measurement": "GI50", "setting": "[17]", "result": 11.4, "unit": "nM"}, {"measurement": "GI50", "setting": "[18]; Homo sapiens, wide spectrum of activity against sixty cell lines in nine cell panels", "result": "< 20000", "unit": "nM"}, {"measurement": "Log10LC50 mean graph midpoint (MG_MID)", "setting": "[18]; human tumor cell lines, 48 h exposure, 50% cell death", "result": "−4.62"}, {"measurement": "Log10GI50 mean graph midpoint (MG_MID)", "setting": "[18]; human tumor cell lines, 48 h exposure, 50% cell growth inhibition", "result": "−6.82"}, {"measurement": "Log10TGI mean graph midpoint (MG_MID)", "setting": "[18]; human tumor cell lines, 48 h exposure, total cell growth inhibition", "result": "−6.56"}, {"measurement": "GI50", "setting": "Colon cancer cell lines", "result": 229, "unit": "nM"}, {"measurement": "GI50", "setting": "Breast cancer cell lines", "result": 178, "unit": "nM"}]}]}
